For data set [1], the target named is T1, MbtI (Mycobacterium tuberculosis, UniProt P9WFX1).
T1 construct: made in house
Put plainly: MbtI fluorimetric enzyme inhibition assay. Particulars: for remaining activity at 100 µM / % RA (percentage of residual enzymatic activity): 100 μM test compound, 50 μM chorismic acid; for remaining activity at 100 µM: read-out: % RA (percentage of residual enzymatic activity); for IC50: recombinant MbtI. It is filed as biochemical. How it is done: MbtI from Mtb was produced in recombinant form, and enzyme activity was determined using a fluorimetric assay, as previously reported.[38] For the inhibition studies, the activity was determined in the presence of 100 μM of the test compound and 50 μM of chorismic acid. For compounds that inhibited more than 80% of the initial activity, IC50 values were calculated using eq 1 and GraphPad Prism 8.0 software [drawing 1] 1 where A[I] is the activity at inhibitor concentration [I] and A[0] is the activity in the absence of the inhibitor.

Data set [2] concerns M. bovis BCG. Put plainly: microbe, parasite or virus in culture. It is filed as cell-based. Particulars: for MIC99: Mycobacterium tuberculosis variant bovis BCG, BCG; for antimycobacterial effect (in words): M. bovis BCG, REMA.
Data set [3] has as its system mycobacterial efflux pumps. It is filed as cell-based, M. bovis BCG. Particulars: MIC99 with reserpine 32 μg/mL or verapamil 125 μg/mL (1/2 MIC).
For the next data set, the system named is siderophore production. It is filed as cell-based. The settings on record: M. bovis BCG grown with different concentrations of compound.
For data set [4], the system named is M. bovis BCG. The format is cell-based. The settings on record: 1 × MIC and 10 × MIC, low-iron chelated Sauton's medium.
Data set [5] deals with Mtb-infected murine alveolar-like macrophages (mAMs). The format is cell-based, Mycobacterium tuberculosis.
The next data set in a line: Polymersome size by DLS. The format is physicochemical. The settings on record: three independent batches. The method, then: The purified solutions were then analyzed by Transmission Electron Microscopy (TEM) on a Jeol JEM 1010 100 kV microscope, equipped with a Megaview 1kx1k CCD (Jeol Ltd., Tokyo, Japan). Copper grids were glow-discharged, and the sample was adsorbed onto the grid. The sample was stained with 1 wt % phosphotungstic acid (PTA) adjusted to pH 7.4 with NaOH. All the TEM analyses were performed with dried samples. The nanoparticle size distribution was characterized by DLS analyses (DLS PN3704 Zetasizer, Malvern Panalytical) using a copolymer concentration of 0.20 mg/mL. For each analysis, 3 measurements were carried out, based on 11 runs. Samples were analyzed at 25 °C with a scattering angle of 173° and a 633 nm HeNe laser, based on a material refractive index (RI) of 1.59, a dispersant refractive index of 1.330, and a viscosity of 0.89. Drug encapsulation was measured by RP-HPLC (Dionex UltiMate 3000, ThermoFisher Scientific). A gradient of water + TFA 0.05% (A) and MeOH + TFA 0.05% (B) from 0 min (30% B) to 30 min (100% B) was used to run the samples through a Jupiter 5 μm C18 300 Å, 150 × 4.6 mm column (Phenomenex, Torrance, CA). The peak area was integrated by using Chromeleon version 6.8 (ThermoFisher Scientific).

Data set [6] relates to mouse alveolar-like macrophages (MPI-2 cell line). Put plainly: MTT viability assay on mAMs. It is filed as cell-based. Particulars: 24 h exposure, 200, 100, 50 and 25 μM. How it is done: Cell viability was evaluated on human monocytes (THP-1 cell line), human lung fibroblasts (HLF cell line), and mouse alveolar-like macrophages (MPI-2 cell line) using the thiazolyl blue tetrazolium bromide method (MTT; chemicals acquired from Sigma-Aldrich, Merck KGaA).

The target of data set [7] is T1, MbtI. The settings on record: compound II; cited from earlier work.
The test system of data set [8] is M. bovis BCG. The settings on record: cited from earlier work.
The next data set relates to Mtb H37Rv. Details: method as in PMID 32530281. The settings on record: compound I; cited from earlier work.
A further data set has as its system human cell lines. On the set-up: method as in PMID 30889995, PMID 36015139. Particulars: several human cell lines; cited from earlier work.

Values after ≈ are worked out from the molar mass of the structure shown. “Also recorded” adds a separate entry of the source. Where two headings read alike, the source gives them in different places.

T1 sequence (P9WFX1 whole entry): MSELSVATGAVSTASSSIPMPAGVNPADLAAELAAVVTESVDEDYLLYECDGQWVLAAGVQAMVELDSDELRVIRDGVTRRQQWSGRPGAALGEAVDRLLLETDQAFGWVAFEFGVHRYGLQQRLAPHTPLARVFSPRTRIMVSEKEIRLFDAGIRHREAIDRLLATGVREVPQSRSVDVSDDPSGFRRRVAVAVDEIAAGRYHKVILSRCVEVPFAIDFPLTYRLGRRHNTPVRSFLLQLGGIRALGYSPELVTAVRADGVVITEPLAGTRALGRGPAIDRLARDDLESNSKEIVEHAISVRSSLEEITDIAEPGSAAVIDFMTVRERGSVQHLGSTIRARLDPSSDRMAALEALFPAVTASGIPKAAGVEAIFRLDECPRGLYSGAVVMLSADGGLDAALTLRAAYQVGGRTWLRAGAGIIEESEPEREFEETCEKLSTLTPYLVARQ

For the compound `CCOc1cc(C#N)cc(-c2ccc(C(=O)O)o2)c1` [Compound 1a, 5-(3-Cyano-5-ethoxyphenyl)furan-2-carboxylic Acid], at MbtI [1], the remaining activity at 100 µM was 4.9 ± 2.3% and the IC50 was determined as 11.8 ± 0.6 µM. The MIC99 against M. bovis BCG [2] was above 500 µM.

On to `CC(C)Oc1cc(C#N)cc(-c2ccc(C(=O)O)o2)c1` [Compound 1b, 5-(3-Cyano-5-isopropoxyphenyl)furan-2-carboxylic Acid], for which, on MbtI [1], the remaining activity at 100 µM is 12.1 ± 2.9% and the concentration for half-maximal inhibition (IC50) was 21.1 ± 0.6 µM. Also, the MIC99 against M. bovis BCG [2] is above 500 µM.

As to `CCCOc1cc(C#N)cc(-c2ccc(C(=O)O)o2)c1` [Compound 1c, 5-(3-Cyano-5-propoxyphenyl)furan-2-carboxylic Acid], on MbtI [1], the remaining activity at 100 µM came out at 2.5 ± 0.4% and the IC50 worked out at 18.5 ± 0.9 µM. In the data set with M. bovis BCG [2], this compound gave an MIC99 of 250 µM (≈ 67.8 µg/mL).

Take `CCCCOc1cc(C#N)cc(-c2ccc(C(=O)O)o2)c1` [Compound 1d, 5-(3-Butoxy-5-cyanophenyl)furan-2-carboxylic Acid]: at MbtI [1], the remaining activity at 100 µM was below 1% and the IC50 is 0.9 ± 0.2 µM. This compound also returned an MIC99 against M. bovis BCG [2] of 63 µM (≈ 18 µg/mL). For the same compound, the “substrate of mycobacterial efflux pumps” value in data set [3] is on record as “not substrates of efflux pumps”.

For the compound `CC(C)COc1cc(C#N)cc(-c2ccc(C(=O)O)o2)c1` [Compound 1e, 5-(3-Cyano-5-isobutoxyphenyl)furan-2-carboxylic Acid], at MbtI [1], the remaining activity at 100 µM amounted to 7 ± 3.1% and the 50% inhibitory concentration (IC50) came to 11.2 ± 1.5 µM. In the data set on M. bovis BCG [2], the MIC99 is 32 µM (≈ 9.13 µg/mL). The “siderophore production (CAS assay)” value with siderophore production was “acted by impairing the production of siderophores”. In the data set on M. bovis BCG [4], the time-killing behaviour result was “bacteriostatic activity”. Further, the “substrate of mycobacterial efflux pumps” value in data set [3] is given as “not substrates of efflux pumps”. Also, the “reduction in Mtb intracellular burden by the free compound” value in [5] is listed as “did not exhibit significant activity on infected macrophages; also recorded: detected only at the highest tested concentration (200 μM)”.

As for `N#Cc1cc(OCC2CC2)cc(-c2ccc(C(=O)O)o2)c1` [Compound 1f, 5-(3-Cyano-5-(cyclopropylmethoxy)phenyl)furan-2-carboxylic Acid], on MbtI [1], the “% RA (percentage of residual enzymatic activity)” value was 20.6 ± 2.4% and the remaining activity at 100 µM came out at 20%. The MIC99 against M. bovis BCG [2] stood at 125 µM (≈ 35.4 µg/mL).

With `N#Cc1cc(OCC2CCC2)cc(-c2ccc(C(=O)O)o2)c1` [Compound 1g, 5-(3-Cyano-5-(cyclobutylmethoxy)phenyl)furan-2-carboxylic Acid], at MbtI [1], the “% RA (percentage of residual enzymatic activity)” value was determined as 30.4 ± 6.3% and the remaining activity at 100 µM came to 30%. The MIC99 against M. bovis BCG [2] was 250 µM (≈ 74.3 µg/mL).

Take `CC(C)(C)COc1cc(C#N)cc(-c2ccc(C(=O)O)o2)c1` [Compound 1h, 5-(3-Cyano-5-(neopentyloxy)phenyl)furan-2-carboxylic Acid]: on MbtI [1], the remaining activity at 100 µM was 6.8 ± 3.1% and the concentration for half-maximal inhibition (IC50) stood at 18.6 ± 1.5 µM. In the data set on M. bovis BCG [2], this compound returned an MIC99 of 125 µM (≈ 37.4 µg/mL).

As for `CCCCCOc1cc(C#N)cc(-c2ccc(C(=O)O)o2)c1` [Compound 1i, 5-(3-Cyano-5-(pentyloxy)phenyl)furan-2-carboxylic Acid], on MbtI [1], the remaining activity at 100 µM was 0.4 ± 0.2% and the IC50 stood at 6.8 ± 0.1 µM. In addition, the MIC99 against M. bovis BCG [2] came out at 125 µM (≈ 37.4 µg/mL).

Take `CC(C)CCOc1cc(C#N)cc(-c2ccc(C(=O)O)o2)c1` [Compound 1j, 5-(3-Cyano-5-(isopentyloxy)phenyl)furan-2-carboxylic Acid]: at MbtI [1], the remaining activity at 100 µM was 1.6 ± 1.4% and the IC50 was found to be 22 ± 1.8 µM. In the data set with M. bovis BCG [2], this compound returned an MIC99 of 125 µM (≈ 37.4 µg/mL).

With `CCCCCCOc1cc(C#N)cc(-c2ccc(C(=O)O)o2)c1` [Compound 1k, 5-(3-Cyano-5-(hexyloxy)phenyl)furan-2-carboxylic Acid], at MbtI [1], the remaining activity at 100 µM is 6 ± 6.1% and the IC50 was 9.9 ± 1.3 µM. In addition, in the data set on M. bovis BCG [2], the MIC99 worked out at 63 µM (≈ 19.7 µg/mL). Also, the “substrate of mycobacterial efflux pumps” value in data set [3] was “not substrates of efflux pumps”.

On to `CCCCCCCCOc1cc(C#N)cc(-c2ccc(C(=O)O)o2)c1` [Compound 1l, 5-(3-Cyano-5-(octyloxy)phenyl)furan-2-carboxylic Acid], for which, at MbtI [1], the “% RA (percentage of residual enzymatic activity)” value is on record as 40.0 ± 4.1% and the remaining activity at 100 µM came to 40%.

Take `CC=CCOc1cc(C#N)cc(-c2ccc(C(=O)O)o2)c1` [Compound 1m, 5-(3-(But-2-en-1-yloxy)-5-cyanophenyl)furan-2-carboxylic Acid]: at MbtI [1], the remaining activity at 100 µM was found to be 7.5 ± 0.3% and the IC50 stood at 3.1 ± 0.7 µM. The compound further came in with an MIC99 against M. bovis BCG [2] of 125 µM (≈ 35.4 µg/mL).

On to `C/C=C/C=C/COc1cc(C#N)cc(-c2ccc(C(=O)O)o2)c1` [Compound 1n, 5-(3-Cyano-5-((2E,4E)-hexa-2,4-dien-1-yloxy)phenyl)furan-2-carboxylic Acid], for which, at MbtI [1], the remaining activity at 100 µM amounted to 10 ± 3.6% and the concentration for half-maximal inhibition (IC50) is 16.6 ± 2.1 µM. In addition, in the data set on M. bovis BCG [2], the “antimycobacterial effect (in words)” value is “completely abolished the antimycobacterial effect” and the MIC99 is above 500 µM.

Turning to `C/C=C/C=C/C=C/COc1cc(C#N)cc(-c2ccc(C(=O)O)o2)c1` [Compound 1o, 5-(3-Cyano-5-((2E,4E,6E)-octa-2,4,6-trien-1-yloxy)phenyl)furan-2-carboxylic Acid], at MbtI [1], the remaining activity at 100 µM was determined as 18.4 ± 3.8% and the IC50 came out at 9.2 ± 2.4 µM. For the same compound, in the data set on M. bovis BCG [2], the “antimycobacterial effect (in words)” value is on record as “completely abolished the antimycobacterial effect” and the MIC99 was above 500 µM.

In the case of `CCOC(=O)c1ccc(-c2cc(C#N)cc(OCC(C)C)c2)o1` [Compound 2ea, Ethyl 5-(3-Cyano-5-isobutoxyphenyl)furan-2-carboxylate], on MbtI [1], the remaining activity at 100 µM came out at 71.5 ± 7.6%. The compound also gave an MIC99 against M. bovis BCG [2] of 64 µM (≈ 20.1 µg/mL). In the data set “Polymersome size by DLS”, the “average size (hydrodynamic diameter) of drug-containing POs” value is 44.46 ± 9.58 nm. Moreover, in data set [6], the “mAM viability / cytotoxic effect” value was “increase in mAM mortality at the two highest tested concentrations (200 and 100 μM)”.

Turning to `CCCOC(=O)c1ccc(-c2cc(C#N)cc(OCC(C)C)c2)o1` [Compound 2eb, Propyl 5-(3-Cyano-5-isobutoxyphenyl)furan-2-carboxylate], the remaining activity at 100 µM at MbtI [1] stood at 94 ± 9.3%. In addition, the MIC99 in the data set on M. bovis BCG [2] is 125 µM (≈ 40.9 µg/mL). Besides, the “average size (hydrodynamic diameter) of drug-containing POs” value in “Polymersome size by DLS” was 45.68 ± 1.86 nm. Besides, the “mAM viability / cytotoxic effect” value in [6] was “increase in mAM mortality at the two highest tested concentrations (200 and 100 μM)”.

For `N#Cc1cc(OCCOc2ccccc2)cc(-c2ccc(C(=O)O)o2)c1` [II], at MbtI [7], the IC50 is 12.1 µM. The MIC99 in the data set with M. bovis BCG [8] (compound II) is 63 µM (≈ 22 µg/mL).

Regarding `N#Cc1cccc(-c2ccc(C(=O)O)o2)c1` [I], the MIC99 in the data set with M. bovis BCG [8] (compound I, M. bovis BCG) was 250 µM (≈ 53.3 µg/mL); in the data set on Mtb H37Rv, 250 µM (≈ 53.3 µg/mL). In addition, the “safety on human cell lines” value with human cell lines is on record as “safe on several human cell lines”.

On to `CO[C@H]1/C=C/O[C@@]2(C)Oc3c(C)c(O)c4c(O)c(c(/C=N/N5CCN(C)CC5)c(O)c4c3C2=O)NC(=O)/C(C)=C\C=C\[C@H](C)[C@H](O)[C@@H](C)[C@@H](O)[C@@H](C)[C@H](OC(C)=O)[C@@H]1C` [Rifampicin, reference compound], for which the “time of peak effect on Mtb fluorescence” value in data set [5] (1 μg/mL (2x MIC), positive control) is given as 3 day post-treatment.

(Values after paper PMC11912484 (Journal of Medicinal Chemistry, 2025).)
